From ChEMBL document CHEMBL5257089, “Gamabufotalin Induces Apoptosis and Cytoprotective Autophagy through the mTOR Signaling Pathway in Hepatocellular Carcinoma” (J Nat Prod, 2023)
Active and inactive are the calls of the source. The calls are words filed in the database; no cut-off is given here.

Tests used:
Hep 3B2 [1] = test: Induction of apoptosis in human Hep3B cells assessed as necrotic cells at 10 nM incubated for 48 hrs in presence of gamabufotalin by Annexin V-FITC/PI staining based flow cytometry method (reference value: 0.7%); type: functional
Huh-7 [2] = test: Induction of apoptosis in human Huh-7 cells assessed as reduction in bcl-2 level at 10 uM incubated for 48 hrs in presence of gamabufotalin by immunoblot analysis; type: functional, cell-based
Hep 3B2 [3] = test: Induction of apoptosis in human Hep3B cells assessed as late apoptotic cells at 10 nM incubated for 48 hrs in presence of gamabufotalin by Annexin V-FITC/PI staining based flow cytometry method (reference value: 2.2%); type: functional
Hep 3B2 [4] = test: Induction of autophagy in human Hep3B cells assessed as downregulation of LC3II/LC3I ratio at 10 uM incubated for 48 hrs in presence of gamabufotalin by immunoblot analysis; type: functional, cell-based
Huh-7 [5] = test: Induction of apoptosis in human Huh-7 cells assessed as upregulation of PARP level at 10 uM incubated for 48 hrs in presence of gamabufotalin by immunoblot analysis; type: functional, cell-based
Huh-7 [6] = test: Induction of autophagy in human Huh-7 cells assessed as reduction in autophagic vesicles at 10 nM incubated for 48 hrs in presence of gamabufotalin by transmission electron microscopy based analysis; type: functional, cell-based
Huh-7 [7] = test: Induction of autophagy in human Huh-7 cells harbouring mCherry-egfp-LC3 assessed as reduction in red puncta ratio at 10 nM incubated for 15 mins in presence of gamabufotalin by laser scanning confocal microscopic analysis; type: functional, cell-based
Huh-7 [8] = test: Induction of apoptosis in human Huh-7 cells assessed as upregulation of cleaved caspase-3 level at 10 uM incubated for 48 hrs in presence of gamabufotalin by immunoblot analysis; type: functional, cell-based
Huh-7 [9] = test: Induction of apoptosis in human Huh-7 cells assessed as upregulation of bax level at 10 uM incubated for 48 hrs in presence of gamabufotalin by immunoblot analysis; type: functional, cell-based
Huh-7 [10] = test: Induction of apoptosis in human Huh-7 cells assessed as early apoptotic cells at 10 nM incubated for 48 hrs by Annexin V-FITC/PI staining based flow cytometry method (reference value: 4.3%); type: functional
Huh-7 [11] = test: Induction of apoptosis in human Huh-7 cells assessed as viable cells at 10 nM incubated for 48 hrs by Annexin V-FITC/PI staining based flow cytometry method (reference value: 90.0%); type: functional; conditions: read-out: Activity
Huh-7 [12] = test: Induction of apoptosis in human Huh-7 cells assessed as upregulation of cleaved PARP level at 10 uM incubated for 48 hrs in presence of gamabufotalin by immunoblot analysis; type: functional, cell-based
Huh-7 [13] = test: Induction of apoptosis in human Huh-7 cells assessed as early apoptotic cells at 10 nM incubated for 48 hrs in presence of gamabufotalin by Annexin V-FITC/PI staining based flow cytometry method (reference value: 4.3%); type: functional
Huh-7 [14] = test: Induction of autophagy in human Huh-7 cells assessed as restoration of ULK1 phosphorylation expression at 10 uM incubated for 48 hrs in presence of gamabufotalin by immunoblot analysis; type: functional, cell-based
Hep 3B2 [15] = test: Induction of apoptosis in human Hep3B cells assessed as necrotic cells at 10 nM incubated for 48 hrs by Annexin V-FITC/PI staining based flow cytometry method (reference value: 0.7%); type: functional
Hep 3B2 [16] = test: Induction of autophagy in human Hep3B cells harbouring mCherry-egfp-LC3 assessed as reduction in red puncta ratio at 10 nM incubated for 15 mins in presence of gamabufotalin by laser scanning confocal microscopic analysis; type: functional, cell-based
Hep 3B2 [17] = test: Induction of autophagy in human Hep3B cells assessed as upregulation of p62 at 10 uM incubated for 48 hrs in presence of gamabufotalin by immunoblot analysis; type: functional, cell-based
Hep 3B2 [18] = test: Induction of apoptosis in human Hep3B cells assessed as upregulation of PARP level at 10 uM incubated for 48 hrs in presence of gamabufotalin by immunoblot analysis; type: functional, cell-based
Hep 3B2 [19] = test: Induction of apoptosis in human Hep3B cells assessed as viable cells at 10 nM incubated for 48 hrs in presence of gamabufotalin by Annexin V-FITC/PI staining based flow cytometry method (Rvb =95.7%); type: functional; conditions: read-out: Activity
Hep 3B2 [20] = test: Induction of autophagy in human Hep3B cells harbouring mCherry-egfp-LC3 assessed as reduction in yellow puncta ratio at 10 nM incubated for 15 mins in presence of gamabufotalin by laser scanning confocal microscopic analysis; type: functional, cell-based
Hep 3B2 [21] = test: Induction of apoptosis in human Hep3B cells assessed as upregulation of bax level at 10 uM incubated for 48 hrs in presence of gamabufotalin by immunoblot analysis; type: functional, cell-based
Huh-7 [22] = test: Induction of apoptosis in human Huh-7 cells assessed as viable cells at 10 nM incubated for 48 hrs in presence of gamabufotalin by Annexin V-FITC/PI staining based flow cytometry method (reference value: 90.0%); type: functional; conditions: read-out: Activity
Hep 3B2 [23] = test: Induction of apoptosis in human Hep3B cells assessed as late apoptotic cells at 10 nM incubated for 48 hrs by Annexin V-FITC/PI staining based flow cytometry method (reference value: 2.2%); type: functional
Huh-7 [24] = test: Induction of apoptosis in human Huh-7 cells assessed as upregulation of caspase-3 level at 10 uM incubated for 48 hrs in presence of gamabufotalin by immunoblot analysis; type: functional, cell-based
Huh-7 [25] = test: Induction of apoptosis in human Huh-7 cells assessed as necrotic cells at 10 nM incubated for 48 hrs by Annexin V-FITC/PI staining based flow cytometry method (reference value: 1.9%); type: functional
Huh-7 [26] = test: Induction of autophagy in human Huh-7 cells assessed as restoration of mTOR phosphorylation expression at 10 uM incubated for 48 hrs in presence of gamabufotalin by immunoblot analysis; type: functional, cell-based
Hep 3B2 [27] = test: Induction of apoptosis in human Hep3B cells assessed as reduction in bcl-2 level at 10 uM incubated for 48 hrs in presence of gamabufotalin by immunoblot analysis; type: functional, cell-based
Hep 3B2 [28] = test: Induction of apoptosis in human Hep3B cells assessed as early apoptotic cells at 10 nM measured after 48 hrs by Annexin V-FITC/PI staining based flow cytometry method (reference value: 1.3%); type: functional
Huh-7 [29] = test: Induction of apoptosis in human Huh-7 cells assessed as necrotic cells at 10 nM incubated for 48 hrs in presence of gamabufotalin by Annexin V-FITC/PI staining based flow cytometry method (reference value: 1.9%); type: functional
Hep 3B2 [30] = test: Induction of apoptosis in human Hep3B cells assessed as upregulation of cleaved caspase-3 level at 10 uM incubated for 48 hrs in presence of gamabufotalin by immunoblot analysis; type: functional, cell-based
Huh-7 [31] = test: Induction of autophagy in human Huh-7 cells harbouring mCherry-egfp-LC3 assessed as reduction in yellow puncta ratio at 10 nM incubated for 15 mins in presence of gamabufotalin by laser scanning confocal microscopic analysis; type: functional, cell-based
Huh-7 [32] = test: Induction of apoptosis in human Huh-7 cells assessed as late apoptotic cells at 10 nM incubated for 48 hrs in presence of gamabufotalin by Annexin V-FITC/PI staining based flow cytometry method (reference value: 3.8%); type: functional
Hep 3B2 [33] = test: Induction of apoptosis in human Hep3B cells assessed as early apoptotic cells at 10 nM measured after 48 hrs in presence of gamabufotalin by Annexin V-FITC/PI staining based flow cytometry method (reference value: 1.3%); type: functional
Hep 3B2 [34] = test: Induction of apoptosis in human Hep3B cells assessed as upregulation of cleaved PARP level at 10 uM incubated for 48 hrs in presence of gamabufotalin by immunoblot analysis; type: functional, cell-based
Huh-7 [35] = test: Induction of apoptosis in human Huh-7 cells assessed as late apoptotic cells at 10 nM incubated for 48 hrs by Annexin V-FITC/PI staining based flow cytometry method (reference value: 3.8%); type: functional
Hep 3B2 [36] = test: Induction of apoptosis in human Hep3B cells assessed as viable cells at 10 nM incubated for 48 hrs by Annexin V-FITC/PI staining based flow cytometry method (Rvb =95.7%); type: functional; conditions: read-out: Activity
Huh-7 [37] = test: Induction of autophagy in human Huh-7 cells assessed as downregulation of LC3II/LC3I ratio at 10 uM incubated for 48 hrs in presence of gamabufotalin by immunoblot analysis; type: functional, cell-based
Huh-7 [38] = test: Induction of autophagy in human Huh-7 cells assessed as upregulation of p62 at 10 uM incubated for 48 hrs in presence of gamabufotalin by immunoblot analysis; type: functional, cell-based
Hep 3B2 [39] = test: Induction of autophagy in human Hep3B cells assessed as restoration of mTOR phosphorylation expression at 10 uM incubated for 48 hrs in presence of gamabufotalin by immunoblot analysis; type: functional, cell-based
Hep 3B2 [40] = test: Induction of autophagy in human Hep3B cells assessed as restoration of ULK1 phosphorylation expression at 10 uM incubated for 48 hrs in presence of gamabufotalin by immunoblot analysis; type: functional, cell-based
Hep 3B2 [41] = test: Induction of apoptosis in human Hep3B cells assessed as upregulation of caspase-3 level at 10 uM incubated for 48 hrs in presence of gamabufotalin by immunoblot analysis; type: functional, cell-based
Hep 3B2 [42] = test: Induction of autophagy in human Hep3B cells assessed as reduction in autophagic vesicles at 10 nM incubated for 48 hrs in presence of gamabufotalin by transmission electron microscopy based analysis; type: functional, cell-based

Question: `O=[N+]([O-])c1ccc(Nc2nc(N3CCOCC3)nc(N3CCOCC3)n2)cc1` was tested. Which Activity (Hep 3B2 [1]) did it give?
Answer: 1.7%

Question: And the Activity (Huh-7 [2])?
Answer: Active

Question: What about the Activity (Hep 3B2 [3]) of the same molecule?
Answer: 20.2%

Question: What about the Activity (Hep 3B2 [4]) of the same molecule?
Answer: Active

Question: What about the Activity (Huh-7 [5]) of the same molecule?
Answer: Active

Question: And the Activity (Huh-7 [6])?
Answer: Active

Question: What about the Activity (Huh-7 [7]) of the same molecule?
Answer: Active

Question: What about the Activity (Huh-7 [8]) of the same molecule?
Answer: Active

Question: What about the Activity (Huh-7 [9]) of the same molecule?
Answer: Active

Question: And the Activity (Huh-7 [10])?
Answer: 3.8%

Question: What about the viability at 0.01 µM (Huh-7 [11]) of the same molecule?
Answer: 92.6%

Question: What about the Activity (Huh-7 [12]) of the same molecule?
Answer: Active

Question: And the Activity (Huh-7 [13])?
Answer: 14.9%

Question: And the Activity (Huh-7 [14])?
Answer: Active

Question: What about the Activity (Hep 3B2 [15]) of the same molecule?
Answer: 0.1%

Question: What about the Activity (Hep 3B2 [16]) of the same molecule?
Answer: Active

Question: What about the Activity (Hep 3B2 [17]) of the same molecule?
Answer: Active

Question: And the Activity (Hep 3B2 [18])?
Answer: Active

Question: And the viability at 0.01 µM (Hep 3B2 [19])?
Answer: 67.2%

Question: And the Activity (Hep 3B2 [20])?
Answer: Active

Question: And the Activity (Hep 3B2 [21])?
Answer: Active

Question: What about the viability at 0.01 µM (Huh-7 [22]) of the same molecule?
Answer: 76.8%

Question: And the Activity (Hep 3B2 [23])?
Answer: 3.4%

Question: And the Activity (Huh-7 [24])?
Answer: Active

Question: What about the Activity (Huh-7 [25]) of the same molecule?
Answer: 0.7%

Question: What about the Activity (Huh-7 [26]) of the same molecule?
Answer: Active

Question: What about the Activity (Hep 3B2 [27]) of the same molecule?
Answer: Active

Question: And the Activity (Hep 3B2 [28])?
Answer: 2.5%

Question: And the Activity (Huh-7 [29])?
Answer: 1.7%

Question: What about the Activity (Hep 3B2 [30]) of the same molecule?
Answer: Active

Question: And the Activity (Huh-7 [31])?
Answer: Active

Question: What about the Activity (Huh-7 [32]) of the same molecule?
Answer: 6.6%

Question: And the Activity (Hep 3B2 [33])?
Answer: 10.9%

Question: What about the Activity (Hep 3B2 [34]) of the same molecule?
Answer: Active

Question: And the Activity (Huh-7 [35])?
Answer: 2.9%

Question: What about the viability at 0.01 µM (Hep 3B2 [36]) of the same molecule?
Answer: 94%

Question: And the Activity (Huh-7 [37])?
Answer: Active

Question: What about the Activity (Huh-7 [38]) of the same molecule?
Answer: Active

Question: And the Activity (Hep 3B2 [39])?
Answer: Active

Question: What about the Activity (Hep 3B2 [40]) of the same molecule?
Answer: Active

Question: What about the Activity (Hep 3B2 [41]) of the same molecule?
Answer: Active

Question: And the Activity (Hep 3B2 [42])?
Answer: Active
